Reference: patent CN107531679A, “芳香酰胺类衍生物、其制备方法及其在医药上的应用” (Jiangsu Hengrui Medicine Co Ltd, priority 2016, dated 2017)
“Also recorded” adds a separate entry of the source.

How the values were obtained:
RORγ = molecular target: T1, RORγ (Homo sapiens, UniProt P51449); test: TR-FRET RORγ coactivator assay (LanthaScreen); settings: RORγ LBD
T1 sequence (P51449 269-508 limits assumed): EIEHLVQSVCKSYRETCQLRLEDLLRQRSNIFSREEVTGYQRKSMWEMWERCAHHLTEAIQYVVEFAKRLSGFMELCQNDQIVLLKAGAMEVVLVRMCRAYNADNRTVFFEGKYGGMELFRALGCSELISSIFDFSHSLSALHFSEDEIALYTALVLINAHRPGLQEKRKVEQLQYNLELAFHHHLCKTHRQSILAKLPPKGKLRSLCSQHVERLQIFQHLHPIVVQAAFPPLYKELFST

[1] = test system: MC38 mouse colon tumour [MC38小鼠结肠肿瘤]; test: In vivo efficacy: MC38 colon tumour growth in syngeneic C57BL/6 mice; settings: for TGI (tumour growth inhibition rate): MC38 in C57BL/6 mice

CCS(=O)(=O)c1ccc(CNC(=O)c2ccc3c(c2)cc(Cc2ccc(OC(F)(F)F)cc2)n3C(C)C)cc1 [实施例18, N-(4-(乙磺酰基)苄基)-1-异丙基-2-(4-(三氟甲氧基)苄基)-1H-吲哚-5-甲酰胺]
effect on RORγ in vitro activity (mode of modulation, in words) (RORγ): 表现出抑制的效果

CCc1ccccc1Cc1cc2cc(C(=O)NCc3ccc(S(=O)(=O)CC)cc3)ccc2n1C(C)C [实施例10, 2-(2-(乙基苄基)-N-(4-(乙磺酰基)苄基)-1-异丙基-1H-吲哚-5-甲酰胺]
effect on RORγ in vitro activity (mode of modulation, in words) (RORγ): 表现出激动的效果

CCS(=O)(=O)c1ccc(CNC(=O)c2ccc3c(c2)cc(Cc2ccc(C(F)(F)F)cc2)n3C(C)C)cc1 [实施例14, N-(4-(乙磺酰基)苄基)-1-异丙基-2-(4-(三氟甲基)苄基)-1H-吲哚-5-甲酰胺]
effect on RORγ in vitro activity (mode of modulation, in words) (RORγ): 表现出抑制的效果

CCS(=O)(=O)c1ccc(CNC(=O)c2ccc3c(c2)cc(Cc2ccc(Cl)cc2C(F)(F)F)n3CCF)cc1 [实施例30, 2-(4-氯-2-(三氟甲基)苄基)-N-(4-(乙磺酰基)苄基)-1-(2-氟乙基)-1H-吲哚-5-甲酰胺]
TGI (tumour growth inhibition rate) ([1]; Example 30 (12.5 mg/kg) combined with anti-mouse PD-1 monoclonal antibody (5 mg/mouse)): 68%
synergy in words ([1]; Example 30 combined with PD-1 antibody, MC38 colon tumour model): 较强的协同效应; also recorded: 较强的协同作用
biological activity in vivo in words (RORγ activation versus inhibition) ([1]; MC38 colon tumour model, conclusion of the applicant): 具有与RORγ激活(而非抑制)一致的生物活性
TGI (tumour growth inhibition rate) ([1]; single agent, 12.5 mg/kg, twice daily, 21 days): 34%
antitumour effect in words ([1]; single agent, MC38 colon tumour model): 表现出抑瘤活性

CCS(=O)(=O)c1ccc(CNC(=O)c2ccc3c(c2)cc(Cc2ccc(F)cc2C(F)(F)F)n3C(C)C)cc1 [实施例4, N-(4-(乙磺酰基)苄基)-2-(4-氟-2-(三氟甲基)苄基)-1-异丙基-1H-吲哚-5-甲酰胺]
effect on RORγ in vitro activity (mode of modulation, in words) (RORγ): 表现出激动的效果

CCS(=O)(=O)c1ccc(CNC(=O)c2ccc3c(c2)cc(Cc2ccc(C(F)(F)F)cc2F)n3C(C)C)cc1 [实施例15, N-(4-(乙磺酰基)苄基)-2-(2-氟-4-(三氟甲基)苄基)-1-异丙基-1H-吲哚-5-甲酰胺]
effect on RORγ in vitro activity (mode of modulation, in words) (RORγ): 表现出抑制的效果

CCS(=O)(=O)c1ccc(CNC(=O)c2ccc3c(c2)cc(Cc2cccc(C(F)(F)F)c2)n3C(C)C)cc1 [实施例17, N-(4-(乙磺酰基)苄基)-1-异丙基-2-(3-(三氟甲基)苄基)-1H-吲哚-5-甲酰胺]
effect on RORγ in vitro activity (mode of modulation, in words) (RORγ): 表现出抑制的效果
